Here are results for one compound from patent publication US6750213B2, “Estrogen receptor modulators” (Merck & Co., Inc., priority 2000, dated 2004).

This assay relates to MCF-7 cells. Description: MCF-7 Estrogen Dependent Proliferation Assay. In kind it is cell-based. The conditions noted are these: Homo sapiens, MCF7, addition to Estrogen Depleted Media (EDM), read-out: EC50 of stimulation of growth of MCF-7 cells. An excerpt:
MCF-7 cells (ATCC #HTB-22) are human mammary gland adenocarcinoma cells that require estrogen for growth. The growth media (GM) for the MCF-7 cells is Minimum Essential Media (without phenol red) supplemented with fetal bovine serum(FBS) to 10%. The FBS serves as the sole source of estrogen and this GM supports the full growth of the cells and is used for the routine growth of the cell cultures. When MCF-7 cells are placed in a media in which 10% Charcoal-Dextran treated fetal bovine serum (CD-FBS) is substituted for FBS, the cells will cease to divide but will remain viable. […] The addition of estradiol to EDM stimulates the growth of the MCF-7 cells in a dose dependent manner with an EC50 of 2 pM. Growing MCF-7 cells are washed several times with EDM and the cultures then maintained in EDM for a minimum of 6 days in order to deplete the cells of endogenous estrogen. […] At this point, the culture supernatants are aspirated, the cells washed 2×with PBS, the wash solution aspirated and the protein content of each well determined. Each drug dilution is evaluated on a minimum of 5 wells and the range of dilution of the test compounds in the assay is […] to 1000 nM. […] The assay is terminated at day 8-10 when the appropriate controls reach 80-90% confluency and the protein content of each well is determined as above.

As for `C[C@]12CC[C@@H]3c4ccc(O)cc4CC[C@H]3[C@@H]1CC[C@@H]2O` [estradiol], the EC50 was 2 pM.

As a reminder, the EC50 is the midpoint of the concentration-response curve.
